Assay results published in patent US20250122225A1, “MASP-2 INHIBITORS AND METHODS OF USE” (Omeros Corporation, priority 2023, published 2025).
Where a name gives a salt, the structure may show the parent alone.

Columns and labels:
MASP-2 (CCP1-CCP2-SP) = molecular target: T1, MASP-2 (CCP1-CCP2-SP) (Homo sapiens, UniProt O00187); experiment: Enzymatic assay for MASP-2 inhibitory activity (fluorogenic substrate); format: biochemical
T1 construct: 15 μL of Enzyme MASP-2 (CCP1-CCP2-SP) in Assay Buffer
T1 sequence (O00187 445-686 limits assumed): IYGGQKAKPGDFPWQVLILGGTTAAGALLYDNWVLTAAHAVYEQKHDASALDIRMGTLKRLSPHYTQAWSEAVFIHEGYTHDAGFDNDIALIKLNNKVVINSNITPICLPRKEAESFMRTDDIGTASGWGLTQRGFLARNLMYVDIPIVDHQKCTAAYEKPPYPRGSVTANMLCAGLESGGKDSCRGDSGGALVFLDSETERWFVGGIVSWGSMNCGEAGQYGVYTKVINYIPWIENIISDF
T1 sequence (O00187 287-444 partner limits assumed): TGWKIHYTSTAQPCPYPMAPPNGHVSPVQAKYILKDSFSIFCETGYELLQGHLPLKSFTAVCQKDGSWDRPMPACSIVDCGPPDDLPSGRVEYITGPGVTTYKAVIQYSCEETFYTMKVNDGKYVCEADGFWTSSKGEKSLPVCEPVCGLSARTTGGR
Procedure: The MASP-2 assay utilizes a fluorogenic substrate, based on the cleavage site for its natural substrate C2. The assay was run at room temperature in an assay buffer containing 20 mM HEPES, pH 7.4, 140 mM NaCl and 0.1% Tween 20. Assay parameters were adjusted such that the assay was linear with respect to time, enzyme, and substrate concentrations. Under the optimized assays conditions, IC50 values were equivalent to Ki values, except in the few cases of “tight binding” inhibitors. Cases of “tight binding” or possible “slow binding” inhibitors were handled by the methods described in Copeland R. A. (2013) Evaluation of Enzyme Inhibitors in Drug Discovery. 2nd Ed., John Wiley and Sons, Inc., Chapters 5-7.
The MASP-2 assay protocol was carried out as follows. Test compounds were serially diluted in DMSO and then 100 nL of each dilution was transferred to the assay plate(s). 10 μL of Assay Buffer was added, followed by 15 μL of Enzyme MASP-2 (CCP1-CCP2-SP) in Assay Buffer. 15 μL of Substrate in Assay Buffer was then added and the mixture was mixed to start the reaction. After 20 min at room temperature, 15 μL of a stop solution (0.1 M acetic acid) was added, the sample was mixed, and the plates were read on a SpectraMax i3x Microplate Reader with the data exported as an Excel file. Each assay plate included a “no inhibitor” (DMSO only) control, a “no enzyme” control, and a reference inhibitor control. % Activity values=100*(average test comp. fluorescence−average “no enzyme” fluorescence)/(average “DMSO only” fluorescence−average “no enzyme” fluorescence). IC50 and Ki replicate values were very reproducible, with values well within ±2-fold.

human α-thrombin = molecular target: T2, human α-thrombin (Homo sapiens, UniProt P00734); experiment: Enzymatic assay for thrombin (fluorogenic peptide substrate Boc-VPR-AMC); format: biochemical
T2 construct: enzyme (human α-thrombin (BioPharm® Lab.)) in assay buffer; purchased BioPharm® Lab
Procedure: The thrombin assay utilizes a fluorogenic peptide substrate (Boc-VPR-AMC (R&D Systems) and was run at room temperature in an assay buffer containing 20 mM Hepes, pH 7.4, 140 mM NaCl and 0.1% Tween 20. Assay parameters were adjusted such that the assay was linear with respect to time, enzyme, and substrate concentrations. Under these optimized assays conditions, IC50 values were equivalent to Ki values, except in a few cases of “tight binding” inhibitors. Cases of “tight binding” or possible “slow binding” inhibitors were handled by the methods described in Copeland R. A. (2013) Evaluation of Enzyme Inhibitors in Drug Discovery. 2nd Ed. John Wiley and Sons, Inc., Chapters 5-7.
The thrombin assay protocol was carried out as follows. Test compounds were serially diluted in DMSO and then 100 nL of each dilution was transferred to the assay plate(s). 10 μL of Assay Buffer was added, followed by 15 μL of enzyme (human α-thrombin (BioPharm® Lab.)) in assay buffer. 15 μL of substrate in assay buffer was then added and the sample mixed to start the reaction. After 20 min at room temperature, 15 μL of a stop solution (0.1 M acetic acid) was added, the sample was mixed, and the plates were read on a SpectraMax® i3x Microplate Reader with the data exported as Excel files. Each assay plate included a “no inhibitor” (DMSO only) control, a “no enzyme” control, and a reference inhibitor control. % Activity values=100*(ave. test comp. fluorescence−ave. “no enz” fluorescence)/(ave. “DMSO only” fluorescence−ave. “no enz” fluorescence). IC50 and Ki values were very reproducible, with values falling well within ±2-fold.

Compound	Ki (MASP-2 (CCP1-CCP2-SP))	Ki (human α-thrombin)
Cc1cc(C)cc(CNc2ncc3n(c2=O)[C@H](C(=O)NC(C)c2cc(Cl)ccc2-n2cnnn2)CC3)c1 (mixture of isomers) [Compound 283, (S)—N—((R/S)-1-(5-chloro-2-(1H-tetrazol-1-yl)phenyl)ethyl)-3-((3,5-dimethylbenzyl)amino)-4-oxo-4,6,7,8-tetrahydropyrrolo[1,2-a]pyrazine-6-carboxamide]	< 0.5 µM	< 0.5 µM
Cc1cc(C)cc(CNc2nc(Cl)c3n(c2=O)[C@H](C(=O)NCc2cc4cnccc4[nH]2)CC3)c1 [Compound 1, (S)—N-((1H-pyrrolo[3,2-c]pyridin-2-yl)methyl)-1-chloro-3-((3,5-dimethylbenzyl)amino)-4-oxo-4,6,7,8-tetrahydropyrrolo[1,2-a]pyrazine-6-carboxamide]	< 0.5 µM	10 to 25 µM
COCCCCNc1nc(Cl)c2n(c1=O)[C@H](C(=O)NCc1ccc(N)nc1C)CC2 [Compound 2, (S)-N-((6-amino-2-methylpyridin-3-yl)methyl)-1-chloro-3-((4-methoxybutyl)amino)-4-oxo-4,6,7,8-tetrahydropyrrolo[1,2-a]pyrazine-6-carboxamide]	< 0.5 µM	2.5 to 10 µM
CCc1cccc(CNc2nc(Cl)c3n(c2=O)[C@H](C(=O)NCc2cc4cnccc4[nH]2)CC3)c1 [Compound 3, (S)-N-((1H-pyrrolo[3,2-c]pyridin-2-yl)methyl)-1-chloro-3-((3-ethylbenzyl)amino)-4-oxo-4,6,7,8-tetrahydropyrrolo[1,2-a]pyrazine-6-carboxamide]	< 0.5 µM	2.5 to 10 µM
CCc1cccc(CNc2nc(Cl)c3n(c2=O)[C@H](C(=O)NCc2ccc(N)nc2C)CC3)c1 [Compound 4]	< 0.5 µM	0.5 to 2.5 µM
Cc1nc(N)ccc1CNC(=O)[C@@H]1CCc2c(Cl)nc(NCc3cccc(CO)c3)c(=O)n21 [Compound 5, (S)-N-((6-amino-2-methylpyridin-3-yl)methyl)-1-chloro-3-((3-(hydroxymethyl)benzyl)amino)-4-oxo-4,6,7,8-tetrahydropyrrolo[1,2-a]pyrazine-6-carboxamide]	< 0.5 µM	0.5 to 2.5 µM
O=C(NCc1cc2cnccc2[nH]1)[C@@H]1CCc2c(Cl)nc(NCc3cccc(CO)c3)c(=O)n21 [Compound 6, (S)-N-((1H-pyrrolo[3,2-c]pyridin-2-yl)methyl)-1-chloro-3-((3-(hydroxymethyl)benzyl)amino)-4-oxo-4,6,7,8-tetrahydropyrrolo[1,2-a]pyrazine-6-carboxamide]	< 0.5 µM	2.5 to 10 µM
COc1cc(C)cc(CNc2nc(Cl)c3n(c2=O)[C@H](C(=O)NCc2cc4cnccc4[nH]2)CC3)c1 [Compound 7, (S)-N-((1H-pyrrolo[3,2-c]pyridin-2-yl)methyl)-1-chloro-3-((3-methoxy-5-methylbenzyl)amino)-4-oxo-4,6,7,8-tetrahydropyrrolo[1,2-a]pyrazine-6-carboxamide]	< 0.5 µM	2.5 to 10 µM
COc1cc(C)cc(CNc2nc(Cl)c3n(c2=O)[C@H](C(=O)NCc2ccc(N)nc2C)CC3)c1 [Compound 8, (S)-N-((6-amino-2-methylpyridin-3-yl)methyl)-1-chloro-3-((3-methoxy-5-methylbenzyl)amino)-4-oxo-4,6,7,8-tetrahydropyrrolo[1,2-a]pyrazine-6-carboxamide]	< 0.5 µM	0.5 to 2.5 µM
Cc1ccccc1CNc1nc(Cl)c2n(c1=O)[C@H](C(=O)NCc1cc3cnccc3[nH]1)CC2 [Compound 9, (S)-N-((1H-pyrrolo[3,2-c]pyridin-2-yl)methyl)-1-chloro-3-((2-methylbenzyl)amino)-4-oxo-4,6,7,8-tetrahydropyrrolo[1,2-a]pyrazine-6-carboxamide]	< 0.5 µM	2.5 to 10 µM
Cc1ccc(C)c(CNc2nc(Cl)c3n(c2=O)[C@H](C(=O)NCc2ccc(N)nc2C)CC3)c1 [Compound 10, (S)-N-((6-amino-2-methylpyridin-3-yl)methyl)-1-chloro-3-((2,5-dimethylbenzyl)amino)-4-oxo-4,6,7,8-tetrahydropyrrolo[1,2-a]pyrazine-6-carboxamide]	< 0.5 µM	0.5 to 2.5 µM
Cc1ccc(C)c(CNc2nc(Cl)c3n(c2=O)[C@H](C(=O)NCc2cc4cnccc4[nH]2)CC3)c1 [Compound 11, (S)-N-((1H-pyrrolo[3,2-c]pyridin-2-yl)methyl)-1-chloro-3-((2,5-dimethylbenzyl)amino)-4-oxo-4,6,7,8-tetrahydropyrrolo[1,2-a]pyrazine-6-carboxamide]	< 0.5 µM	10 to 25 µM
Cc1cccc(CNc2nc(Cl)c3n(c2=O)[C@H](C(=O)NCc2ccc(N)nc2C)CC3)c1F [Compound 12, (S)-N-((6-amino-2-methylpyridin-3-yl)methyl)-1-chloro-3-((2-fluoro-3-methylbenzyl)amino)-4-oxo-4,6,7,8-tetrahydropyrrolo[1,2-a]pyrazine-6-carboxamide]	< 0.5 µM	2.5 to 10 µM
Cc1cccc(CNc2nc(Cl)c3n(c2=O)[C@H](C(=O)NCc2cc4cnccc4[nH]2)CC3)c1F [Compound 13, (S)-N-((1H-pyrrolo[3,2-c]pyridin-2-yl)methyl)-1-chloro-3-((2-fluoro-3-methylbenzyl)amino)-4-oxo-4,6,7,8-tetrahydropyrrolo[1,2-a]pyrazine-6-carboxamide]	< 0.5 µM	10 to 25 µM
Cc1cccc(CNc2nc(Cl)c3n(c2=O)[C@H](C(=O)NCc2cc4cnccc4[nH]2)CC3)c1C [Compound 15, (S)-N-((1H-pyrrolo[3,2-c]pyridin-2-yl)methyl)-1-chloro-3-((2,3-dimethylbenzyl)amino)-4-oxo-4,6,7,8-tetrahydropyrrolo[1,2-a]pyrazine-6-carboxamide]	< 0.5 µM	2.5 to 10 µM
Cc1nc(N)ccc1CNC(=O)[C@@H]1CCc2c(Cl)nc(NCc3cccc(C(F)F)c3)c(=O)n21 [Compound 16, (S)-N-((6-amino-2-methylpyridin-3-yl)methyl)-1-chloro-3-((3-(difluoromethyl)benzyl)amino)-4-oxo-4,6,7,8-tetrahydropyrrolo[1,2-a]pyrazine-6-carboxamide]	< 0.5 µM	2.5 to 10 µM
O=C(NCc1cc2cnccc2[nH]1)[C@@H]1CCc2c(Cl)nc(NCc3cccc(C(F)F)c3)c(=O)n21 [Compound 17, (S)-N-((1H-pyrrolo[3,2-c]pyridin-2-yl)methyl)-1-chloro-3-((3-(difluoromethyl)benzyl)amino)-4-oxo-4,6,7,8-tetrahydropyrrolo[1,2-a]pyrazine-6-carboxamide]	< 0.5 µM	10 to 25 µM
Cc1nc(N)ccc1CNC(=O)[C@@H]1CCc2c(Cl)nc(NCCC(F)F)c(=O)n21 [Compound 18, (S)-N-((6-amino-2-methylpyridin-3-yl)methyl)-1-chloro-3-((3,3-difluoropropyl)amino)-4-oxo-4,6,7,8-tetrahydropyrrolo[1,2-a]pyrazine-6-carboxamide]	< 0.5 µM	2.5 to 10 µM
O=C(NCc1cc2cnccc2[nH]1)[C@@H]1CCc2c(Cl)nc(NCCC(F)F)c(=O)n21 [Compound 19, (S)-N-((1H-pyrrolo[3,2-c]pyridin-2-yl)methyl)-1-chloro-3-((3,3-difluoropropyl)amino)-4-oxo-4,6,7,8-tetrahydropyrrolo[1,2-a]pyrazine-6-carboxamide]	< 0.5 µM	> 25 µM
COc1ccnc(CNC(=O)[C@@H]2CCc3cnc(NCc4cc(C)cc(F)c4)c(=O)n32)c1F [Compound 190, (S)-N-((3-fluoro-4-methoxypyridin-2-yl)methyl)-3-((3-fluoro-5-methylbenzyl)amino)-4-oxo-4,6,7,8-tetrahydropyrrolo[1,2-a]pyrazine-6-carboxamide trifluoroacetate]	–	2.5 to 10 µM
